Measurements reported in patent US8227240B2, “Systems for screening pharmaceutical chemicals” (The Washington University, priority 2001, dated 2012).

Test system: chicken embryo fibroblasts (CEF's) tissue model
Assay: Ring system: isometric force and dynamic stiffness of fibroblast populated matrices (FPM)
Type: cell-based
Details: for contractile force produced in response to serum activation: cytochalasin D 2 μM
Description: Chicken embryo fibroblasts (CEF's) isolated from 11-day chicken embryos (Spafas Inc., Preston, Conn.) were maintained in Dulbecco's modified Eagle's medium (DMEM) supplemented with 10% fetal calf serum (FCS), penicillin at 50 units/ml, and streptomycin at 50 microgram/milliliter. The CEF's used to make tissue models were passaged once or twice from primary cultures. Monomeric collagen solubilized in 0.02 M acetic acid (Upstate Biotechnology Inc., Lake Placid, N.Y.) was neutralized at 4° C. with 0.1 N NaOH and mixed with concentrated DMEM stock to yield a final normal DMEM concentration. The fibroblasts suspended by trypsin (FIG. 1a) were mixed with the collagen solution (FIG. 1b), the cell suspension was poured into Teflon casting wells (FIG. 1c), and the wells were incubated at 37° C. with 5% CO2 (FIG. 1d). The collagen polymerized within 15-30 min and fibroblasts were captured within the hydrated collagen gel. The collagen gel formed a ring (3 mm thick, 3 cm diameter) between the inner wall of the cylindrical well and the central mandrel. While in culture the cells compressed this ring, reducing its volume about 10-fold (thickness 200-300 μm). The ring could then be removed from the mandrel (FIG. 1e and FIG. 1f) and mounted on the measuring instrument (FIG. 1g) as described below.
Mechanical measurements were carried out using a ring system. After two days of incubation (serum starvation for the final 12-16 hours), the mandrel was removed from the casting well and the tissue model-ring was removed gently from the mandrel. As shown in FIG. 1 the tissue model-ring was looped over the triangular hook connected to an isometric force transducer (Model 52-9545, Harvard Apparatus, South Natick, Mass.) by a fine, flexible gold chain. The ring was also looped over a horizontal bar connected to a sliding element moveable vertically and linearly by a stepper motor (P/N 1-19-3400 24V DC 1.8° step size, Haward Industry, St. Louis, Mo.) controlled by a micro-stepping driver (IM483 Intelligent Motion Systems) to measure stress and dynamic modulus of the sample. The micro-stepping driver was controlled by a personal computer with software which enabled the stepper motor to achieve smooth motion. An analog-to-digital signal converter (CIO-DAS1602/16, Computer Boards, Inc., Mansfield, Mass.) attached to the computer translated the voltage signal from the isometric force transducer to a digital signal for recording on a data recorder. The stepper motor controlled the stretching of the tissue. Force exerted by or on the tissue was transmitted to the force transducer by the gold chain.
The tissue sample was submerged in 50 ml Hepes-buffered DMEM (pH 7.4) in a thermo-regulated organ bath (Harvard Apparatus, South Natick, Mass.) maintained at 37° C. The two horizontal bars over which the ring was looped were initially set to hold the ring at its original contour length (corresponding to the circumference of the mandrel).
Typically, for stiffness measurements, the tissue model is subjected to a sequence of stretch cycles. In each cycle the tissue model is slowly stretched from 0 to 20% over 30 minutes and the tissue model is then returned at the same rate to its original length by actuation of the stepper motor. The resulting increase in contractile force during the first stretch is substantially larger than the contractile force in subsequent stretches (FIG. 2a). For each stretch after the first stretch there is a further small decrease in maximum contractile force, but the decrease becomes negligible after sufficient pre-stretching. The tissue models produced contractile force in response to the activation of fibroblasts by serum. This contractile force was abolished by disrupting the actin cytoskeleton with cytochalasin D (2 μM) (FIG. 2b).
The amplitude of the force response divided by the stretching amplitude corresponded to the dynamic stiffness of the sample subjected to a preselected sinusoidal length change. […]

`C=C1[C@@H](C)[C@H]2[C@H](Cc3ccccc3)NC(=O)[C@]23[C@H](OC(C)=O)/C=C/[C@@](C)(O)C(=O)[C@@H](C)C/C=C/[C@H]3[C@@H]1O` [CD, cytochalasin D] was tested, and the “concentration range over which tension and stiffness decrease” value was “almost three decades”, the “lowest concentration at which force and dynamic stiffness were significantly diminished” value was 2 nM and the dynamic stiffness (CD 2 μM) was “nearly reached its minimum value”. For the same compound, the isometric force (CD 2 μM) was “reduced almost to zero”, the “contractile force produced in response to serum activation” value (listed as Cytochalasin D) was “abolition of active contractility” and the “contractile force produced in response to serum activation” value (listed as cytochalasin D) was “abolished”. For the same compound, the “effect on viscosity of the tissues (phase angle δ)” value (data not shown) was “relatively minor effect” and the IC50 (two day-old tissue models, serum starved 16 hours, serial additions, read-out: concentration needed to reduce the force and dynamic stiffness by 50%) was ~250 nM.
